Data taken from publication PMC6544269, “Identification of inhibitors of an unconventional Trypanosoma brucei kinetochore kinase” (PLoS ONE, 2019).
Blank lines part the entries; values can stand above or below the molecule they belong to.

Columns and labels:
TbKKT19 [1] = target: T1, TbKKT19 (Trypanosoma brucei, UniProt Q382T9); assay: ADP Hunter Plus kinase assay, 10-point IC50, with technology counterscreen; repurchased and reconfirmed; format: biochemical
T1 construct: gene Tb11.01.4250; recombinant His-tagged, full-length TbKKT19
T1 sequence (Q382T9 1-484): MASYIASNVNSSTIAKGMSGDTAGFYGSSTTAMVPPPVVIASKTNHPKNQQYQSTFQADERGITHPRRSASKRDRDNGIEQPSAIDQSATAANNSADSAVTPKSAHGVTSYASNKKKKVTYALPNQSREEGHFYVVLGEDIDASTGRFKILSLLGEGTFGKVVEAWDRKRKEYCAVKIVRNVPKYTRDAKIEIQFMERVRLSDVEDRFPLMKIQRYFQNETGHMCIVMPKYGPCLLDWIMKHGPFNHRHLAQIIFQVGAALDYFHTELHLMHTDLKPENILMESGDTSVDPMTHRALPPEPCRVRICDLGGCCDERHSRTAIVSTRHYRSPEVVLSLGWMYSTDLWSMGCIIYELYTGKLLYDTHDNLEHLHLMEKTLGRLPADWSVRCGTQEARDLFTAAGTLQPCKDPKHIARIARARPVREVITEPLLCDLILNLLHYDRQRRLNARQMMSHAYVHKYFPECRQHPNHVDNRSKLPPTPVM

TbKKT19 [2] = target: T1, TbKKT19; assay: ADP Hunter Plus kinase assay, KKL peptide, […] ATP; potency shift at […] ATP; format: biochemical
purified protein = substrate: Nc1ncnc2c1ncn2[C@@H]1O[C@H](COP(=O)(O)OP(=O)(O)OP(=O)(O)O)[C@@H](O)[C@H]1O; assay: purified protein; format: biochemical, Trypanosoma brucei; settings: ATP binding site

- IC50 (TbKKT19 [1]): 18.9 µM
Molecule: CCN(Cc1ccc(/C=C2/C(=O)Nc3ccccc32)o1)S(C)(=O)=O [compound 1]

- IC50 (TbKKT19 [1]): 14.9 µM
Molecule: O=C(Nc1ccc2cn[nH]c2c1)c1c(Cl)cccc1Cl [compound 2]

Molecule: COc1cc(O)c2c(c1)[C@H]1O[C@@H]1C[C@H](O)[C@H](O)C(=O)/C=C\C[C@H](C)OC2=O [hypothemycin]
- IC50 (TbKKT19 [2]): 0.065 µM

Molecule: CN[C@@H]1C[C@H]2O[C@@](C)([C@@H]1OC)n1c3ccccc3c3c4c(c5c6ccccc6n2c5c31)C(=O)NC4 [staurosporine]
- IC50 (TbKKT19 [2]): 0.288 µM

B1: TbKKT19 (Trypanosoma brucei brucei TREU927) (protein)
chain: T1 sequence (Q382T9 1-484)
notes: recombinant His-tagged, full-length TbKKT19
- Km (purified protein): 102 µM
